The text below walks through data of patent US20220386606A1, “SPECIFICALLY SUBSTITUTED 3-PHENYL-5-SPIROCYCLOPENTYL-3-PYRROLIN-2-ONES AND THEIR USE AS HERBICIDES” (Bayer Aktiengesellschaft, priority 2019, published 2022).

Assay [1] relates to ALOMY. In words: Pre-emergence herbicidal action against ALOMY. In kind it is in vivo, Alopecurus myosuroides. The conditions noted are these: 320 g/ha, scored visually after 3 weeks vs untreated controls. A digest of the protocol:
(§1)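 Sandy loam, wood-fiber pots, seeds covered with soil. Spray onto soil surface: aqueous WP/EC, 600 to 800 L/ha, 0.2% wetting agent. Greenhouse 3 weeks; visual % score vs untreated controls.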

Assay [2] relates to AVEFA. In words: Pre-emergence herbicidal action against AVEFA. In kind it is in vivo, Avena fatua. Conditions: 320 g/ha, scored visually after 3 weeks vs untreated controls. The procedure, abridged: as §1
Assay [3] concerns DIGSA. In words: Pre-emergence herbicidal action against DIGSA. Conditions: 320 g/ha, scored visually after 3 weeks vs untreated controls. In kind it is in vivo, Digitaria sanguinalis. The procedure, abridged:
as §1

Assay [4] deals with ECHCG. In words: Pre-emergence herbicidal action against ECHCG. In kind it is in vivo, Echinochloa crus-galli. The conditions noted are these: 320 g/ha, scored visually after 3 weeks vs untreated controls. The procedure, abridged: as §1
Assay [5] deals with LOLRI. In words: Pre-emergence herbicidal action against LOLRI (Table 8, titled post-emergence at 320 g/ha). It is filed as in vivo, Lolium rigidum. Conditions: table stands in the pre-emergence section. The procedure, abridged: as §1
Assay [6] deals with SETVI. The assay is described as follows: Pre-emergence herbicidal action against SETVI. It is filed as in vivo, Setaria viridis. The conditions noted are these: 320 g/ha, scored visually after 3 weeks vs untreated controls. A digest of the protocol:
as §1

Assay [7] deals with ABUTH. In words: Pre-emergence herbicidal action against ABUTH. The conditions noted are these: 320 g/ha. It is filed as in vivo, Abutylon threophrasti. A digest of the protocol: as §1
In a further assay the test system is VIOTR. The assay is described as follows: Pre-emergence herbicidal action against VIOTR. In kind it is in vivo, Viola tricolor. Conditions: 320 g/ha. A digest of the protocol:
as §1

In a further assay the test system is VERPE. The assay is described as follows: Pre-emergence herbicidal action against VERPE. In kind it is in vivo, Veronica persica. Conditions: 320 g/ha. A digest of the protocol: as §1
Assay [8] concerns ALOMY. The assay is described as follows: Post-emergence herbicidal action against ALOMY. In kind it is in vivo, Alopecurus myosuroides. The conditions noted are these: 80 g/ha, visual assessment after about 3 weeks. A digest of the protocol:
(§2)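 Herbicidal action is rated visually in percent against untreated controls, where 100% means dead plants and 0% means no difference. Ratings come about 3 weeks after foliar spraying of one-leaf-stage plants with aqueous WP or EC preparations plus 0.2% wetting agent at 600 to 800 l/ha.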

Assay [9] has as its system DIGSA. In words: Post-emergence herbicidal action against DIGSA. In kind it is in vivo, Digitaria sanguinalis. Conditions: 80 g/ha, visual assessment about 3 weeks after treatment vs untreated controls. A digest of the protocol: as §2
Assay [10] has as its system ECHCG. In words: Post-emergence herbicidal action against ECHCG. It is filed as in vivo, Echinochloa crus-galli. Conditions: 80 g/ha, visual assessment about 3 weeks after treatment vs untreated controls. A digest of the protocol:
as §2

The test system of assay [11] is LOLRI. The assay is described as follows: Post-emergence herbicidal action against LOLRI. In kind it is in vivo, Lolium rigidum. The conditions noted are these: 80 g/ha, visual assessment about 3 weeks after treatment vs untreated controls. A digest of the protocol:
as §2

The subject of assay [12] is SETVI. The assay is described as follows: Post-emergence herbicidal action against SETVI. It is filed as in vivo, Setaria viridis. The conditions noted are these: 80 g/ha, visual assessment about 3 weeks after treatment vs untreated controls. A digest of the protocol:
as §2

Assay [13] deals with AMARE. The assay is described as follows: Post-emergence herbicidal action against AMARE. In kind it is in vivo, Amaranthus retroflexus. Conditions: 80 g/ha, visual assessment about 3 weeks after treatment vs untreated controls. As to the method: Seeds of monocotyledonous and dicotyledonous weed and crop plants are laid out in sandy loam soil in wood-fiber pots, covered with soil and cultivated in a greenhouse under good growth conditions. 2 to 3 weeks after sowing, the test plants are treated at the one-leaf stage. The compounds of the invention, formulated in the form of wettable powders (WP) or as emulsion concentrates (EC), are then sprayed onto the green parts of the plants as aqueous suspension or emulsion at a water application rate equating to 600 to 800 l/ha with addition of 0.2% wetting agent. After the test plants have been left to stand in the greenhouse under optimal growth conditions for about 3 weeks, the action of the preparations is assessed visually in comparison to untreated controls (herbicidal action in percent (%): 100% activity=the plants have died, 0% activity=like control plants).

The test system of assay [14] is AMARE. In words: Pre-emergence herbicidal action against AMARE. It is filed as in vivo, Amaranthus retroflexus. The conditions noted are these: 320 g/ha. The procedure, abridged: as §1
Assay [15] relates to AVEFA. In words: Post-emergence herbicidal action against AVEFA. The conditions noted are these: 80 g/ha, visual assessment after about 3 weeks. In kind it is in vivo, Avena fatua. A digest of the protocol:
as §2

In assay [16] the test system is ABUTH. In words: Post-emergence herbicidal action against ABUTH. It is filed as in vivo, Abutylon threophrasti. Conditions: 80 g/ha, visual assessment about 3 weeks after treatment vs untreated controls. A digest of the protocol:
as §2

In the case of `C=CCOCC1CCC2(C1)NC(=O)C(c1c(C)cc(C#CC)cc1Br)=C2OC(=O)OCC` (stereo not shown) [Example P-88], the “Pre-emergence action against ALOMY in %” value in the assay with ALOMY [1] turned out to be 100%. The “Pre-emergence action against AVEFA in %” value with AVEFA [2] came to 90%. Moreover, the “Pre-emergence action against DIGSA in %” value in the assay with DIGSA [3] stood at 100%. Besides, in the assay on ECHCG [4], the “Pre-emergence action against ECHCG in %” value is 100%. In the assay with LOLRI [5], the “Pre-emergence herbicidal action against LOLRI in %” value is reported as 100%. For the same compound, the “Pre-emergence action against SETVI in %” value with SETVI [6] is on record as 100%. In the assay with ABUTH [7], the “Pre-emergence action against ABUTH in %” value is reported as 80%. The “Pre-emergence action against VIOTR in %” value in the assay with VIOTR amounted to 100%. Moreover, in the assay with VERPE, the “Pre-emergence action against VERPE in %” value was 100%. In addition, the “Post-emergence action against ALOMY in %” value in the assay on ALOMY [8] came out at 100%. For the same compound, the “Post-emergence action against DIGSA in %” value in the assay on DIGSA [9] worked out at 90%. Also, the “Post-emergence action against ECHCG in %” value in the assay with ECHCG [10] was determined as 100%. Moreover, the “Post-emergence action against LOLRI in %” value with LOLRI [11] came out at 100%. The “Post-emergence action against SETVI in %” value with SETVI [12] was 100%. Also, the “Post-emergence action against AMARE in %” value in the assay with AMARE [13] is recorded as 80%.

For `CC#Cc1cc(C)c(C2=C(OC(=O)C(C)C)C3(CCC(COC)C3)NC2=O)c(F)c1` (stereo not shown) [Example P-58], the “Pre-emergence action against ALOMY in %” value in the assay on ALOMY [1] is reported as 100%. In addition, in the assay with AVEFA [2], the “Pre-emergence action against AVEFA in %” value amounted to 90%. Moreover, in the assay on DIGSA [3], the “Pre-emergence action against DIGSA in %” value is on record as 100%. In addition, the “Pre-emergence action against ECHCG in %” value in the assay with ECHCG [4] was determined as 100%. Also, the “Pre-emergence herbicidal action against LOLRI in %” value with LOLRI [5] stood at 100%. Further, in the assay on SETVI [6], the “Pre-emergence action against SETVI in %” value came out at 100%. Besides, the “Pre-emergence action against ABUTH in %” value in the assay on ABUTH [7] stood at 80%. Also, the “Pre-emergence action against AMARE in %” value with AMARE [14] turned out to be 90%. Also, in the assay with VIOTR, the “Pre-emergence action against VIOTR in %” value was found to be 100%. The “Post-emergence action against ALOMY in %” value with ALOMY [8] was found to be 100%. Also, in the assay with AVEFA [15], the “Post-emergence action against AVEFA in %” value is 90%. The “Post-emergence action against DIGSA in %” value in the assay with DIGSA [9] was 100%. Further, in the assay with ECHCG [10], the “Post-emergence action against ECHCG in %” value amounted to 100%. Further, in the assay on LOLRI [11], the “Post-emergence action against LOLRI in %” value was 100%. Further, the “Post-emergence action against ABUTH in %” value in the assay with ABUTH [16] is 80%. The “Post-emergence action against AMARE in %” value in the assay with AMARE [13] is 80%.

As to `CC#Cc1cc(C)c(C2=C(O)C3(CCC(COC)C3)NC2=O)c(OC)c1` (stereo not shown) [Example I-31], the “Pre-emergence action against ALOMY in %” value in the assay with ALOMY [1] amounted to 100%. In addition, the “Pre-emergence action against AVEFA in %” value in the assay on AVEFA [2] worked out at 80%. The “Pre-emergence action against DIGSA in %” value with DIGSA [3] was 100%. Besides, in the assay with ECHCG [4], the “Pre-emergence action against ECHCG in %” value is listed as 100%. Besides, in the assay on LOLRI [5], the “Pre-emergence herbicidal action against LOLRI in %” value is 100%. In addition, the “Pre-emergence action against SETVI in %” value in the assay on SETVI [6] came out at 100%. Besides, the “Pre-emergence action against VIOTR in %” value in the assay with VIOTR was 80%. Besides, in the assay on ALOMY [8], the “Post-emergence action against ALOMY in %” value is 100%. In addition, the “Post-emergence action against AVEFA in %” value in the assay with AVEFA [15] was determined as 100%. Besides, the “Post-emergence action against DIGSA in %” value with DIGSA [9] came to 100%. In addition, in the assay with ECHCG [10], the “Post-emergence action against ECHCG in %” value amounted to 100%. Also, in the assay with LOLRI [11], the “Post-emergence action against LOLRI in %” value is 100%. Further, in the assay on SETVI [12], the “Post-emergence action against SETVI in %” value is 100%. Moreover, the “Post-emergence action against ABUTH in %” value in the assay with ABUTH [16] is 80%. The “Post-emergence action against AMARE in %” value in the assay with AMARE [13] amounted to 80%.

On to `CC#Cc1cc(C)c(C2=C(O)C3(CCC(COC)C3)NC2=O)c(F)c1` (stereo not shown) [Example I-36], for which the “Pre-emergence action against ALOMY in %” value in the assay with ALOMY [1] came out at 100%. The “Pre-emergence action against AVEFA in %” value in the assay on AVEFA [2] came out at 80%. Further, the “Pre-emergence action against DIGSA in %” value in the assay on DIGSA [3] came to 100%. The “Pre-emergence action against ECHCG in %” value in the assay on ECHCG [4] came to 100%. For the same compound, the “Pre-emergence herbicidal action against LOLRI in %” value in the assay with LOLRI [5] is 100%. In addition, the “Pre-emergence action against SETVI in %” value in the assay on SETVI [6] is given as 100%. Besides, the “Pre-emergence action against AMARE in %” value with AMARE [14] is given as 90%. For the same compound, the “Pre-emergence action against VIOTR in %” value in the assay with VIOTR is listed as 80%. In addition, in the assay on ALOMY [8], the “Post-emergence action against ALOMY in %” value is reported as 100%. The “Post-emergence action against AVEFA in %” value in the assay on AVEFA [15] is 100%. Further, the “Post-emergence action against DIGSA in %” value in the assay on DIGSA [9] came out at 100%. The “Post-emergence action against ECHCG in %” value with ECHCG [10] worked out at 100%. Also, the “Post-emergence action against LOLRI in %” value in the assay with LOLRI [11] is recorded as 100%. Besides, the “Post-emergence action against ABUTH in %” value in the assay with ABUTH [16] came out at 80%. In addition, in the assay on AMARE [13], the “Post-emergence action against AMARE in %” value was 80%.
